{
  "source": "patent US20080124413A1",
  "about": "“NOVEL COMPOSITION CONTAINING EXTRACTS OF BUTYROSPERMUM PARKII AND THE USE OF SUCH A COMPOSITION FOR PREPARING A MEDICAMENT OR A DIETARY SUPPLEMENT FOR THE TREATMENT OR PREVENTION OF INFLAMMATION […] OR PAIN” (BSP Pharma A/S, priority 1999, published 2008)",
  "key": {"rat": {"tested_on": "rat", "conditions": "The Merck Index; cited from earlier work"}, "[1]": {"tested_on": "BALB/c mouse arthritis induced by collagen mono-clonal antibody (mAb) and lipopolysaccharide", "format": "in vivo", "conditions": "cyclophosphamide 10 mg/kg x3 orally, p<0.05 Wilcoxon", "method": "BPC was dissolved in 100% corn oil. […] Dosing volume was 5 ml/kg.\nIn this study, male BALB/c mice weighing 20±1 grams were used. Space allocation for 5 mice was 45×23×15 cm. The animals were housed in APEC® (Allentown Gaging, Allentown, N.J. 08501, U.S.A.) cages and maintained in a hygienic environment under controlled temperature (22° C.-24° C.) and humidity (60%-80%) with 12-hours light/dark cycles for at least one week prior to being used. Free access to standard lab chow for mice and tap water was granted. All aspects of this work including housing, experimentation and disposal of animals were performed in general according to the International Guiding Principles for Biomedical Research Involving Animals (CIOMS Publication No. ISBN 92 90360194, 1985).\nThe study was performed according to the method of Terato et al. (Autoimmunity, 22:137-147, 1995).\nGroups of 5 BALB/c mice, 6-8 weeks of age, were used for the induction of arthritis by monoclonal antibodies (mAbs) and lipopolysaccharide (LPS). […] This was followed by intravenous 25 μg of LPS 72 hours later (day 3). From day 3, test substances were administered orally once daily for 3 consecutive days. At day 5, one or two paws (particularly the hind) began to appear red and swollen, and from day 7, arthritis symptoms of the two hind paws became severely red and swollen in untreated mice. A plethysmometer (Ugo Basile Cat # 7150) with water cell (12 mm diameter) was used for the measurement of increase in both hind paw volumes at day 7, 10, 14 and 17. The percent of inhibition of increased paw volume was calculated as follows:\nInhibition (%): [1−(Tn−To)/(Cn−Co)]×100\nCo (Cn): Volume of day 0 (day n) in vehicle control (both hind paws summed)\nTo (Tn): Volume of day 0 (day n) in test compound-treated group (both hind paws summed)\nWilcoxon rank sum test for paired differences was used for comparing swelling in the test compound treated groups with swelling in the control group."}},
  "note": "Read-outs that look alike come from different tables or passages of the source.",
  "data": [
    {"smiles": "O=P1(N(CCCl)CCCl)NCCCO1", "note": "(stereo not shown) [cyclophosphamide]", "values": [
      {"measurement": "LD50", "setting": "rat", "value": 94, "unit": "mg/kg"},
      {"measurement": "reduction of hind paw edema relative to the vehicle-treated control group", "setting": "[1]; day 10", "value": 79, "unit": "%"},
      {"measurement": "reduction of hind paw edema relative to the vehicle-treated control group", "setting": "[1]; day 14", "value": 91, "unit": "%"},
      {"measurement": "reduction of hind paw edema relative to the vehicle-treated control group", "setting": "[1]; day 17", "value": 90, "unit": "%"}
    ]}
  ]
}
